Test [1] concerns children diagnosed as having autism. Briefly: Fecal Chymotrypsin Test before and after secretin infusion in 16 autistic children (Experiment 1). In kind it is in vivo, human. As to conditions: each of 16 autistic children; approximately one week after first secretin infusion, 1 U/kg IV. As for the experimental part:
(§1) In this experiment, 16 children diagnosed as having autism were administered the following Fecal Chymotrypsin Test in accordance with an embodiment of the invention. First, approximately 2 grams of stool were collected from each child and placed in a sterile container (although it is to be understood that any quantity of stool may be collected, as 2 grams of stool is not a required amount). Each stool sample was then analyzed using, e.g., an enzymatic photospectrometry analysis as is known by those skilled in the art, to determine the level of fecal chymotrypsin in the stool. Although the enzymatic photospectrophotometry process is preferred, any suitable conventional method may be used for measuring the fecal chymotrypsin levels. The measured chymotrypsin levels of the 16 autistic children are illustrated in FIG. 13.
After determining the chymotrypsin levels of the stools, each of these levels were compared with threshold chymotrypsin levels to determine if the child was likely to benefit from secretin administration. By way of example, with the fecal chymotrypsin tests of the stool samples being performed at 30° C., normal levels of chymotrypsin are deemed to lie above 8.4 U/gram, whereas pathologically abnormal levels are deemed to lie below 4.2 U/gram. […]

The test system is the same in test [2]. Kind of test: CARS (Childhood Autism Rating Scale) test pre- and post-secretin administration (Experiment 1). In kind it is in vivo, human. As to conditions: 16 autistic children. The protocol:
Upon determining that a given child was likely to benefit from secretin administration based on the results of the fecal chymotrypsin test, the child was administered a CARS (Childhood Autism Rating Scale) test prior to being scheduled for secretin infusion.
For each of the 16 autistic children tested, a preferred secretin infusion process according to the present invention was performed involving the administering of 1 U/kg of body weight of Secretin-Ferring for a period of nine months at intervals of approximately 6 weeks. In addition, another CARS test was administered to each of the 16 autistic children 3 weeks post secretin administration to determine if their autism had changed post infusion.
A preferred secretin infusion process includes the initial step of prepping an arm of the candidate child with an IV injection of saline. A test dose of 1 U of Secretin-Ferring is then administered to the child. Approximately one minute after infusion, the child is examined for signs of allergic reaction including rash, increased heart rate, and increase of blood pressure. […] Subsequently, each child receives a 1 U/kg of body weight infusion of Secretin-Ferring approximately every 6 weeks for 9 months. It is to be understood that any commercially available form of secretin may be used.

Test [3] has as its system autistic children with abnormal fecal chymotrypsin levels. Briefly: Fecal chymotrypsin levels of 37 autistic children administered secretin over 6 months (Experiment 2). In kind it is in vivo, human. As to conditions: 6 Months Post-Secretin Administration, of 37 children. As for the experimental part: as §1
After determining the chymotrypsin levels of the stools, each of these levels were compared with threshold chymotrypsin levels to determine if the child was likely to benefit from secretin administration. By way of example, with the fecal chymotrypsin tests of the stool samples being performed at 30° C., normal levels of chymotrypsin are deemed to lie above 8.4 U/gram, whereas pathologically abnormal levels are deemed to lie below 4.2 U/gram. In addition, chymotrypsin levels between 8.4 U/gram and 4.2 U/gram are considered equivocal, and further testing of the individual's fecal chymotrypsin levels over a period of time should be performed.
A preferred secretin infusion process includes the initial step of prepping an arm of the candidate child with an IV injection of saline. A test dose of 1 U of Secretin-Ferring is then administered to the child. […]
In this experiment, 37 autistic children with abnormal fecal chymotrypsin levels were administered secretin over the course of 6 months using the secretin infusion process described above. Their fecal chymotrypsin (FC) levels were measured weekly using the fecal chymotrypsin test described above.

Test [4] has as its system children diagnosed with Autism. As to conditions: secretin given as diagnostic procedure during upper gastrointestinal endoscopy; Horvath et al. 1998; cited from earlier work.

The source of these data is patent publication US20120207740A1, “Method for Treating Pervasive Development Disorders” (CUREMARK, LLC, priority 1999, published 2012).

Turning to secretin, the “fecal chymotrypsin level post-secretin administration versus pre-secretin” value in test [1] is given as “increased”. Moreover, the “CARS component scores (except fear component)” value in test [2] (3 weeks post infusion) is “demonstrated improvement”. For the same substance, the “overall CARS scores post-secretin versus pre-secretin” value in test [2] (approximately 3 weeks after first secretin administration) is recorded as “overall decrease”. In test [3] (0 equivocal pre-secretin), the “# Autistic Children w/Equivocal FC levels” value came to 2. For the same substance, the “# Autistic Children w/normal FC levels” value in test [3] (0 normal pre-secretin) turned out to be 34. The “# Autistic Children w/Abnormal FC levels” value in test [3] (37 abnormal pre-secretin) is 1. Moreover, the “symptoms associated with Autism” value in test [4] is reported as “ameliorating the symptoms”.
